Target: WD repeat-containing protein 5 (Homo sapiens, UniProt P61964)
Assay: Binding affinity to his sumo tagged N-terminal WDR5 (23 to […] residues) (unknown origin) incubated for 3 hrs by HTRF binding assay

IC50 [µM]	SMILES
> 100	CC(C)[C@H](NC(=O)[C@H](CC(=O)O)NC(=O)[C@H](C)NC(=O)[C@H](CCC(=O)O)NC(=O)CNC(=O)[C@H](CCC(=O)O)NC(=O)CNC(=O)[C@@H](N)CS)C(=O)N[C@@H](CS)C(=O)O
> 100	CC(C)C[C@H](NC(=O)[C@H](Cc1ccccc1)NC(=O)[C@@H](N)CS)C(=O)N[C@@H](CC(N)=O)C(=O)N[C@H](C(=O)N[C@@H](CO)C(=O)N[C@@H](CC(N)=O)C(=O)N[C@@H](C)C(=O)N[C@@H](CS)C(=O)O)C(C)C
> 100	NCCCC[C@H](NC(=O)[C@H](Cc1c[nH]c2ccccc12)NC(=O)[C@H](CCC(N)=O)NC(=O)[C@H](CC(N)=O)NC(=O)[C@@H]1CCCN1C(=O)[C@@H](N)CS)C(=O)N[C@@H](CO)C(=O)N[C@@H](Cc1ccc(O)cc1)C(=O)N[C@@H](CS)C(=O)O

Source: ChEMBL document CHEMBL5329190, “Screening and optimization of phage display cyclic peptides against the WDR5 WBM site” (RSC Med Chem, 2023)
